The test system of one data set is C. albicans (KCTC 7270). In words: microbe, parasite or virus in culture. It is filed as cell-based, Candida albicans. Particulars: 2 × 10^4 cells/mL, YPD/PBS, 24 to 30 h, 28 °C, read-out: Minimum Inhibitory Concentrations. The method, then: (§1) The fungal strains C. albicans (KCTC 7270), C. catenulate (7642), C. intermidia (7234), C. rugosa (7324), C. glabrata (7219) and C. melibiosica (KCTC 7631) were cultured at 28 °C in appropriate media. Fungal cells (final concentration 2 × 10^4 cells/ mL) in 50 μL of YPD media (dextrose 2%, peptone 1% and yeast extract 0.5%) were seeded in each well of a microtiter plate containing 50 μL of two-fold serially diluted peptides in phosphate buffered saline. After incubation for 24 to 30 h at 28 °C, the lowest concentration of the peptides inhibiting the growth of the fungi was microscopically determined to be the minimum inhibitory concentrations (MICs). The effect of salt concentration on the antifungal activity of the peptides was tested by determining the MICs in the presence of NaCl and MgCl2. Fixed concentrations of NaCl (50, 100 and 150 mM) or MgCl2 (1, 2 and 5 mM) were added to the sodium phosphate buffer (pH 7.2). The effect of pH on the antifungal activity of the peptides was tested by determining peptide MICs in the presence of sodium phosphate buffer at a variety of pH values.

Data set [1] deals with C. albicans (CCARM 14001). Put plainly: microbe, parasite or virus in culture. Particulars: fluconazole-resistant strain CCARM 14001; 24 to 30 h, 28 °C; read-out: Minimum Inhibitory Concentrations. It is filed as cell-based, Candida albicans.
Data set [2] relates to C. albicans (CCARM 14007). Put plainly: microbe, parasite or virus in culture. It counts as cell-based, Candida albicans. Particulars: fluconazole-resistant strain CCARM 14007; 24 to 30 h, 28 °C; read-out: Minimum Inhibitory Concentrations.
Data set [3] relates to C. albicans (CCARM 140020). In words: microbe, parasite or virus in culture. It counts as cell-based, Candida albicans. Particulars: fluconazole-resistant strain CCARM 140020; 24 to 30 h, 28 °C; read-out: Minimum Inhibitory Concentrations.
The next data set deals with C. catenulate. Put plainly: microbe, parasite or virus in culture. It counts as cell-based, Candida catenulate. Conditions: C. catenulate; read-out: Minimum inhibitory concentration. How it is done:
as §1

For a further data set, the system named is C. rugosa. Put plainly: microbe, parasite or virus in culture. It counts as cell-based, Candida rugosa. Conditions: C. rugosa; read-out: Minimum inhibitory concentration. The method, then:
as §1

The subject of a further data set is C. melibiosica. In words: microbe, parasite or virus in culture. Conditions: C. melibiosica; read-out: Minimum inhibitory concentration. It is filed as cell-based, Candida melibiosica. How it is done: as §1
A further data set deals with C. glabrata. In words: microbe, parasite or virus in culture. It is filed as cell-based, Candida glabrata. Particulars: C. glabrata; read-out: Minimum inhibitory concentration. How it is done:
as §1

The next data set deals with C. intermedia. In words: microbe, parasite or virus in culture. It counts as cell-based, Candida intermedia. Particulars: C. intermedia; read-out: Minimum inhibitory concentration. How it is done:
as §1

For data set [4], the system named is HaCaT (human keratinocyte) cells. In words: Cytotoxicity, MTT assay. It is filed as cell-based. Particulars: 24 h. How it is done: We examined the cytotoxic effects of the peptides using HaCaT (human keratinocyte) cells, which were cultured in Dulbecco’s modified Eagle medium (DMEM) supplemented with antibiotics (100 U/mL penicillin, 100 µg/mL streptomycin) and 10% fetal calf serum at 37 °C in a humidified chamber with atmosphere containing 5% CO2. To measure viable cells and growth inhibition, an MTT colorimetric assay was used. A total of 4 × 10^3 cells was seeded per well into a 96-well plate incubated at 37 °C for 24 h. The next day, cells from plates were treated with various concentrations of the tested peptides. After 24 h incubation at 37 °C, MTT (10 μL) was added at a concentration of 5 mg/mL to each well. The culture supernatants were discarded after a further 4 h, and the remaining precipitate was dissolved by the addition of 100 μL of DMSO into the wells. Absorbance was then measured at a wavelength of 570 nm using an EL800 reader (Bio-Tek instruments, Inc., Winooski, VT, USA).
A general note: Tetrazolium dyes change colour on reduction, which living cells bring about.

The nature of data set [5]: Calcein leakage from eukaryotic membrane mimetic liposomes. Particulars: 2.5 μM lipid, peptide 0.0–0.25 μΜ, 25 min, 25 °C; 100% = 0.1% Triton X-100. How it is done:
(§2) Calcein-entrapped LUVs composed of PE–PC–PI–ergosterol (5:4:1:2, w/w/w/w) or PC–CH–SM (1:1:1, w/w/w) were prepared by mixing the dried lipid in buffer solution (containing 70 mM calcein, PBS, pH 7.4). The suspension was freeze-thawed in liquid nitrogen for nine cycles and then extruded through two stacked […] pore-size polycarbonate filters for 16 times using an Avanti Mini-Extruder (Avanti Polar Lipids Inc., Alabaster, AL, USA). Vesicles containing entrapped calcein were separated from free calcein by gel filtration chromatography on a Sephadex G-50 column. Entrapped LUVs in a suspension containing 2.5 μM lipids were then incubated with various concentrations of the peptide (0.0–0.25 μΜ) for 25 min. The release of calcein fluorescence was followed using a spectrofluorometer (Perkin-Elmer LS55, Mid Glamorgan, UK) with appropriate wavelengths (excitation, 480 nm; and emission, 520 nm). […] Spontaneous leakage was determined to be negligible on this timescale. […] The percentage of calcein release was calculated according to the following equation [41]:Release (%) = 100 × (F − Fo)/(Ft − Fo) (Ex. 480 nm and Em. 520 nm)(1) where F represent the fluorescence intensity before the addition of the detergent, Ft represents the fluorescence intensity after the addition of the detergent and Fo represents the fluorescence of the intact vesicles.

Data set [6] in a line: Calcein leakage from fungal membrane mimetic liposomes. Particulars: 2.5 μM lipid, peptide 0.0–0.25 μΜ, 25 min, 25 °C; 100% = 0.1% Triton X-100; highest P/L ratio tested. How it is done: as §2
Data set [7] deals with C. albicans. Put plainly: SYTOX Green membrane permeabilization. It counts as cell-based, Candida albicans. Particulars: 2 × 10^7 cells/mL, 1 µM SYTOX Green, followed for 120 min. The method, then:
Membrane permeabilization of C. albicans was studied using the fluorescent dye SYTOX Green (Molecular Probes, Eugene, OR, USA). Fungal cells were grown to mid-logarithmic growth phase then centrifuged, washed and resuspended in PBS. Cells were suspended in PBS (2 × 10^7 cells/mL) and incubated with 1 µM SYTOX Green for 15 min in the dark prior to the influx assay. At 2–3 min after initiating data collection, 1/2× or 1× MIC peptides were added to the cell suspensions. Due to the binding of the dye to intracellular DNA, the increases in SYTOX Green fluorescence was measured for 120 min (excitation and emission wavelengths were 485 nm and 520 nm, respectively). Lysis of the cells in Triton X-100 (0.1%) or melittin gave maximum fluorescence.

The subject of data set [8] is C. albicans. In words: Fluorescence microscopy of PI cell permeabilization. It counts as cell-based, Candida albicans. Particulars: 8 μM KW4 or 4 μM melittin, 10, 20 and 30 min, 28 °C. How it is done:
The cell permeability was monitored using the DNA-staining fluorescent probe PI as previously described. For this experiment, C. albicans cells were grown in YPD broth with shaking at 200 rpm overnight at 28 °C. Cells were harvested by centrifugation (4000 rpm for 10 min), washed and suspended in PBS to yield 2 × 10^6 cells/mL; 100 μL of C. albicans suspensions (2 × 10^6 cells/mL) were incubated with 5 μL from respective peptide aqueous stock solutions to yield a final peptide concentration of 8 μM KW4 peptide or 4 μM melittin (as a control peptide) for 10, 20 and 30 min at 28 °C. Next, PI was added to each sample at a final concentration of 1 μg/mL and the plate was incubated at 28 °C for 5 min. The effects of the peptides on C. albicans were visualized by the EVOS FL Auto 2 imaging system (Invitrogen, Waltham, MA, USA). Cells without added peptide served as a control.

Results on one compound are retold here after article PMC7285485, “Antifungal and Antibiofilm Activities and the Mechanism of Action of Repeating Lysine-Tryptophan Peptides against Candida albicans” (Microorganisms, 2020).

Converted amounts (≈) assume the structure as drawn. Some results are limits rather than exact numbers.

Turning to `CC[C@H](C)[C@H](NC(=O)CN)C(=O)NCC(=O)N[C@@H](C)C(=O)N[C@H](C(=O)N[C@@H](CC(C)C)C(=O)N[C@@H](CCCCN)C(=O)N[C@H](C(=O)N[C@@H](CC(C)C)C(=O)N[C@H](C(=O)N[C@H](C(=O)NCC(=O)N[C@@H](CC(C)C)C(=O)N1CCC[C@H]1C(=O)N[C@@H](C)C(=O)N[C@@H](CC(C)C)C(=O)N[C@H](C(=O)N[C@@H](CO)C(=O)N[C@@H](Cc1c[nH]c2ccccc12)C(=O)N[C@H](C(=O)N[C@@H](CCCCN)C(=O)N[C@@H](CCCNC(=N)N)C(=O)N[C@@H](CCCCN)C(=O)N[C@@H](CCCNC(=N)N)C(=O)N[C@@H](CCC(N)=O)C(=O)N[C@@H](CCC(N)=O)C(N)=O)[C@@H](C)CC)[C@@H](C)CC)[C@@H](C)O)[C@@H](C)O)C(C)C)C(C)C` [Melittin, melittin, reference compound], the MIC was 4 µM in the data set on C. albicans (KCTC 7270); 16 µM (≈ 45.5 µg/mL) in [1]; 8 µM (≈ 22.8 µg/mL) in [2]; 8 µM (≈ 22.8 µg/mL) in [3]; 8 µM with C. catenulate; 8 µM in the data set with C. rugosa. For the same compound, the MIC in the data set with C. melibiosica was determined as 8 µM; with C. glabrata, 4 µM; in the data set on C. intermedia, 8 µM. In addition, the “Cytotoxicity against HaCaT cells” value in data set [4] (12.5 μM) was determined as 100%. In data set [4] (HaCaT cells, 200 µM peptide), this compound showed a Cell survival of 0%. The “Calcein leakage from PC–CH–SM liposomes” value in [5] is 90%. Also, in [6], the “Calcein leakage from PE–PC–PI–ergosterol liposomes” value is reported as 80%. The “Time to complete membrane permeabilization (SYTOX green)” value in the data set with C. albicans [7] is at most 35 min. Further, the “PI uptake seen by fluorescence microscopy” value in the data set with C. albicans [8] is “allowed the uptake of PI”.
